# Results published in patent US20220127281A1, “HETEROARYL COMPOUNDS THAT INHIBIT G12C MUTANT RAS PROTEINS” (AstraZeneca AB, priority 2017, published 2022).
# pIC50: −log10 of the molar value. Like-named read-outs stand apart in the source and are kept apart here.
# Key:
# [1] = molecular target: T1, GDP loaded biotinylated KRas^G12C protein (Homo sapiens, UniProt P01116, G12C); experiment: KRasG12C functional assay; format: biochemical; conditions: HTRF FRET readout of SOS-mediated nucleotide exchange and GST-Raf RBD binding, samples incubated for 4 hrs; for IC50: KRasG12C functional assay IC50 value (μM); for pIC50: read-out: KRasG12C functional assay IC50 value
# T1 construct: biotin (biotinylated); made in house
# T1 sequence (P01116 1-188 isoform P01116-2 G12C): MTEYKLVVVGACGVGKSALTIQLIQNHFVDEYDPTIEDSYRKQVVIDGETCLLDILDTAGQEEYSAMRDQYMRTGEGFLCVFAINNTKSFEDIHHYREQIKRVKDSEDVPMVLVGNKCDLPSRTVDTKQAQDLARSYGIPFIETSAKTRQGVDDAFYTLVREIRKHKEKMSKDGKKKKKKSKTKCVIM
# Method: KRasG12C Functional Assay
# All enzyme and substrate solutions were prepared in assay buffer containing 20 mM HEPES (pH 7.5), 5 mM MgCl2, 150 mM NaCl, and 0.01% Tween 20. […] In a separate mix 20 nM GST-Raf Ras binding domain (GST-Raf RBD, purified in house) and 4 μg/ml anti-GST XL665 antibody (Cisbio) was prepared in assay buffer containing 50 mM Potassium Fluoride and 0.05 mg/ml BSA and equilibrated for 4 hours before adding 0.6 μM Guanosine 5′-[γ-thio]triphosphate (GTPγS, Sigma) and 0.08 μM SOS (purified in house). 5 μl of the GST-RAF RBD mix was then dispensed into each well of the assay plate. […] This is detected simultaneously via the specific binding interaction between active GTPγS KRas^G12C with GST-Raf RBD which brings the europium and XL665 into close proximity enabling an increased FRET signal to be detected on a Pherastar (BMG) plate reader equipped with the HTRF filter module. […] IC50 values were calculated from normalised dose-response response FRET data curve fitted in Genedata screener (Basel, Switzerland).
# [2] = molecular target: T1, GDP loaded biotinylated KRas^G12C protein; experiment: KRasG12C mass spectrometry adducting assay; format: binding; conditions: test compound final concentration 10 μM, 4 μM KRasG12C, react for 4 hours
# Method: KRasG12C Mass Spectrometry Adducting Assay
# Enzyme solutions were prepared in assay buffer containing 20 mM HEPES (pH 7.5), 5 mM MgCl2, and 150 mM NaCl. […] The plate was sealed before reading on a Xevo G2 QTOF (Waters) and Acquity LC system (Waters). […] Blank samples were run in between each test sample.
# Data was analysed in Mass Lynx software (Waters), the Total ion count (TIC) trace was used and the eluted protein peak data combined. Using the combined spectrum the data was deconvoluted using MaxEnt1 method. The peak area for apo-protein KRas^G12C (APO) and KRAS+relative cmpd mass (adduct) were measured, and a percentage adduct was calculated using the following calculation:
# Percent adduct=100*(area of adduct peak/(sum of APO+adduct peaks)
KRasG12C M.S. Binding Mean adduct % [2],pIC50 [1],SMILES,IC50 [1]
0%,4.38,"C=CC(=O)N1CCN2c3ncnc4cc(-c5c(O)cccc5C#N)c(Cl)c(c34)OC[C@@H]2C1 (single isomer, unassigned) [Example 19]",
76%,6.42,"CN(C)C/C=C/C(=O)N1CCN2c3ncnc4cc(-c5c(O)cccc5F)c(Cl)c(c34)OC[C@@H]2C1 [Example 12, (E)-1-((8aS)-6-Chloro-5-(2-fluoro-6-hydroxyphenyl)-8a,9,11,12-tetrahydropyrazino[2′,1′:3,4][1,4]oxazepino[5,6,7-de]quinazolin-10 (8H)-yl)-4-(dimethylamino)but-2-en-1-one]",
56%,5.83,"C=CC(=O)N1CCN2c3ncnc4cc(-c5cccc6c5COCCO6)c(Cl)c(c34)OC[C@@H]2C1 [Example 43, 1-[(8aS)-6-Chloro-5-(2,3-dihydro-5H-1,4-benzodioxepin-6-yl)-8a,9,11,12-tetrahydropyrazino[2′,1′:3,4][1,4]oxazepino[5,6,7-de]quinazolin-10(8H)-yl]prop-2-en-1-one]",
42%,5.23,"C=CC(=O)N1CCN2c3ncnc4cc(-c5cccc(CC#N)c5)c(Cl)c(c34)OC[C@@H]2C1 [Example 59, {3-[(8aS)-10-Acryloyl-6-chloro-8,8a,9,10,11,12-hexahydropyrazino[2′,1′:3,4][1,4]oxazepino[5,6,7-de]quinazolin-5-yl]phenyl}acetonitrile]",
64%,5.70,"C=CC(=O)N1CCN2c3ncnc4cc(-c5cccc6[nH]c(=O)[nH]c56)c(Cl)c(c34)OC[C@@H]2C1 [Example 13, 4-[(8aS)-10-Acryloyl-6-chloro-8,8a,9,10,11,12-hexahydropyrazino[2′,1′:3,4][1,4]-oxazepino[5,6,7-de]quinazolin-5-yl]-1,3-dihydro-2H-benzimidazol-2-one]",
89%,6.21,"C=CC(=O)N1CCN2c3ncnc4cc(-c5c(F)cccc5OC)c(Cl)c(c34)OC[C@@H]2C1 [Example 25, 1-[(8aS)-6-Chloro-5-(2-fluoro-6-methoxyphenyl)-8a,9,11,12-tetrahydropyrazino[2′,1′:3,4][1,4]oxazepino[5,6,7-de]quinazolin-10(8H)-yl]prop-2-en-1-one]",
5%,4.40,"C=CC(=O)N1CCN2c3nc(N4CCOCC4)nc4cc(-c5c(C)ccc6[nH]ncc56)c(Cl)c(c34)OC[C@@H]2C1 (single isomer, unassigned) [Example 72]",
49%,5.46,"C=CC(=O)N1CCN2c3ncnc4cc(-c5ccccc5CO)c(Cl)c(c34)OC[C@@H]2C1 [Example 65, 1-[(8aS)-6-Chloro-5-[2-(hydroxymethyl)phenyl]-8a,9,11,12-tetrahydropyrazino[2′,1′:3,4][1,4]oxazepino[5,6,7-de]quinazolin-10(8H)-yl]prop-2-en-1-one]",
83%,6.65,"C=CC(=O)N1CCN2c3nc(N4CCOCC4)nc4cc(-c5c(C)ccc6[nH]ncc56)c(Cl)c(c34)OC[C@@H]2C1 (single isomer, unassigned) [Example 71]",
100%,7.49,"C=CC(=O)N1CCN2c3ncnc4cc(-c5c(O)cccc5Cl)c(Cl)c(c34)OC[C@@H]2C1 (single isomer, unassigned) [Example 16]",
0%,5.76,"C=CC(=O)N1CCN2c3nc(NCCN(C)C)nc4cc(-c5c(C)ccc6[nH]ncc56)c(Cl)c(c34)OC[C@@H]2C1 (single isomer, unassigned) [Example 79]",
68%,5.20,"C=CC(=O)N1CCN2c3ncnc4cc(-c5cc(Cl)ccc5OC)c(Cl)c(c34)OC[C@@H]2C1 [Example 48, 1-[(8aS)-6-Chloro-5-(5-chloro-2-methoxyphenyl)-8a,9,11,12-tetrahydropyrazino[2′,1′:3,4][1,4]oxazepino[5,6,7-de]quinazolin-10(8H)-yl]prop-2-en-1-one]",
100%,6.91,"C=CC(=O)N1CCN2c3ncnc4cc(-c5c(O)cccc5F)c(Cl)c(c34)OC[C@@H]2C1 [Example 9, 1-[(8aS)-6-Chloro-5-(2-fluoro-6-hydroxyphenyl)-8a,9,11,12-tetrahydropyrazino-[2′,1′:3,4][1,4]oxazepino[5,6,7-de]quinazolin-10 (8H)-yl]prop-2-en-1-one]",
94%,7.92,"C=CC(=O)N1CCN2c3nc(NC4CCN(C5CC5)CC4)nc4cc(-c5c(C)ccc6[nH]ncc56)c(Cl)c(c34)OC[C@@H]2C1 (single isomer, unassigned) [Example 74]",
62%,5.83,"C=CC(=O)N1CCN2c3ncnc4cc(-c5ccccc5C#N)c(Cl)c(c34)OC[C@@H]2C1 [Example 68, 2-[(8aS)-10-Acryloyl-6-chloro-8,8a,9,10,11,12-hexahydropyrazino[2′,1′:3,4][1,4]oxazepino[5,6,7-de]quinazolin-5-yl]benzonitrile]",
33%,5.08,"C=CC(=O)N1CCN2c3ncnc4cc(-c5cccc6nccnc56)c(Cl)c(c34)OC[C@@H]2C1 [Example 32, 1-[(8aS)-6-Chloro-5-(quinoxalin-5-yl)-8a,9,11,12-tetrahydropyrazino[2′,1′:3,4][1,4]oxazepino[5,6,7-de]quinazolin-10(8H)-yl]prop-2-en-1-one]",
74%,6.29,"Cc1ccc2[nH]ncc2c1-c1cc2ncnc3c2c(c1Cl)OC[C@@H]1CN(C(=O)/C=C/CN(C)C)CCN31 [Example 4, (E)-1-((8aS)-6-Chloro-5-(5-methyl-1H-indazol-4-yl)-8a,9,11,12-tetrahydropyrazino[2′,1′:3,4][1,4]oxazepino[5,6,7-de]quinazolin-10 (8H)-yl)-4-(dimethylamino)but-2-en-1-one]",
,7.54,"C=CC(=O)N1CCN2c3ncnc4c(F)c(-c5c(O)cccc5F)c(Cl)c(c34)OC[C@@H]2C1 [Example 69, 1-((8aS)-6-chloro-4-fluoro-5-(2-fluoro-6-hydroxyphenyl)-8a,9,11,12-tetrahydro-pyrazino[2′,1′:3,4][1,4]oxazepino[5,6,7-de]quinazolin-10 (8H)-yl)prop-2-en-1-one]",
28%,5.12,"C=CC(=O)N1CCN2c3ncnc4cc(-c5ccccc5CC(N)=O)c(Cl)c(c34)OC[C@@H]2C1 [Example 49, 2-{2-[(8aS)-10-Acryloyl-6-chloro-8,8a,9,10,11,12-hexahydropyrazino[2′,1′:3,4][1,4]oxazepino[5,6,7-de]quinazolin-5-yl]phenyl}acetamide]",
20%,5.05,"C=CC(=O)N1CCN2c3ncnc4cc(-c5cccc(NC(C)=O)c5)c(Cl)c(c34)OC[C@@H]2C1 [Example 23, N-{3-[(8aS)-10-Acryloyl-6-chloro-8,8a,9,10,11,12-hexahydropyrazino[2′,1′:3,4][1,4]oxazepino[5,6,7-de]quinazolin-5-yl]phenyl}acetamide]",

SMILES,KRasG12C M.S. Binding Mean adduct % [2],pIC50 [1],IC50 [1]
"C=CC(=O)N1CCN2c3ncnc4cc(-c5cccc6[nH]ccc56)c(Cl)c(c34)OC[C@@H]2C1 [Example 53, 1-[(8aS)-6-Chloro-5-(1H-indol-4-yl)-8a,9,11,12-tetrahydropyrazino[2′,1′:3,4][1,4]oxazepino[5,6,7-de]quinazolin-10(8H)-yl]prop-2-en-1-one]",74%,,1.69 µM
"C=CC(=O)N1CCN2c3ncnc4cc(-c5cccc6[nH]ncc56)c(Cl)c(c34)OC[C@@H]2C1 [Example 61, 1-[(8aS)-6-Chloro-5-(1H-indazol-4-yl)-8a,9,11,12-tetrahydropyrazino[2′,1′:3,4][1,4]oxazepino[5,6,7-de]quinazolin-10(8H)-yl]prop-2-en-1-one]",64%,5.65,
"C=CC(=O)N1CCN2c3ncnc4cc(-c5c(C)ccc6[nH]ncc56)c(Cl)c(c34)OC[C@@H]2C1 (single isomer, unassigned) [Example 3]",96%,,0.082 µM
"C=CC(=O)N1CCN2c3ncnc4cc(-c5ccc(N)cc5C)c(Cl)c(c34)OC[C@@H]2C1 [Example 54, 1-[(8aS)-5-(4-Amino-2-methylphenyl)-6-chloro-8a,9,11,12-tetrahydropyrazino[2′,1′:3,4][1,4]oxazepino[5,6,7-de]quinazolin-10(8H)-yl]prop-2-en-1-one]",60%,5.59,
